Experimental data taken from PMC8551653, “Bisphenol A derivatives act as novel coactivator-binding inhibitors for estrogen receptor β” (The Journal of Biological Chemistry, 2021).
Entries after “also recorded” stand apart in the source; their conditions may differ.

What was measured:
ERβ [1] = target: T1, ERβ (Homo sapiens, UniProt Q92731); assay: Luciferase reporter gene assay in HeLa cells, agonistic activity; assay type: cell-based; set-up: expressed in transfected cells; host or cells: HeLa; settings: HeLa cells; for ERβ agonist activity (in words): WT ERβ
Procedure: (§1) HeLa cells were maintained in Eagle's minimum essential medium (Nissui Pharmaceutical Co, Ltd) supplemented with DCC-treated fetal bovine serum (10%, v/v) at 37 °C under 5% CO2. […] After a 24-h incubation, luciferase activity was measured using the ONE-Glo Luciferase Assay System (Promega Co) on an EnSpire multimode plate reader (PerkinElmer, Inc).
Target sequence in this assay (Q92731 whole entry): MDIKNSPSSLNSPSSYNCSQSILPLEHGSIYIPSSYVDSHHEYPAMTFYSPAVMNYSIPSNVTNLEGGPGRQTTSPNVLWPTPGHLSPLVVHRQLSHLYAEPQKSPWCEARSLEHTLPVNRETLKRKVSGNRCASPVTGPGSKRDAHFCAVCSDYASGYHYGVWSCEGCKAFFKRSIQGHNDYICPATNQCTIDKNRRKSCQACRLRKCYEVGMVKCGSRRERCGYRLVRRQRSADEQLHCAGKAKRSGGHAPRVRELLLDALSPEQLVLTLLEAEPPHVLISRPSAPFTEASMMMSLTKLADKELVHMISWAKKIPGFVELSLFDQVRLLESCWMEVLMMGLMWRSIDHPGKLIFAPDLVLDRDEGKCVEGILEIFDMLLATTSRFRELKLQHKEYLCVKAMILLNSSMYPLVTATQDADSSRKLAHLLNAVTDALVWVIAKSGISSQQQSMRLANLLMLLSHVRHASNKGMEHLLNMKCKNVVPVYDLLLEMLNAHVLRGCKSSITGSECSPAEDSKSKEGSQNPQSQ

ERα = test system: ERα; set-up: method as in PMID 31289329; settings: competitive binding, [3H] 17β-estradiol as radioligand; mean ± SD; read-out: Binding affinity (IC50, nM) ERα; cited from earlier work
ERβ [2] = target: T1, ERβ; assay: Competitive binding assay with [3H]4OHT for WT ERβ; set-up: made in house; host or cells: Escherichia coli BL21α
Procedure: (§2) After successive incubation with 100 μl of 0.4% dextran-coated charcoal (DCC) (Sigma-Aldrich) in PBS (pH 7.4) on ice for 10 min, free radioligands bound to DCC were removed using a vacuum filtration system with a 96-well filtration plate (MultiScreenHTS HV, […], Merck KGaA) for the bound/free separation. The radioactivity of each eluent was measured using a liquid scintillation counter (LS6500; Beckman Coulter) and Clear-sol I (Nacalai Tesque Inc). […] Each compound was dissolved in dimethyl sulfoxide to prepare a 1.0 mM stock solution and further diluted to prepare serial dilutions (10^−12 M to 10^−5 M) in the binding buffer. […] Bound/free separation was performed as described above, and the radioactivity was determined using a MicroBeta microplate counter (PerkinElmer Inc). The IC50 value of each test compound was calculated from the dose–response curves generated via nonlinear regression analysis using Prism software (GraphPad Software Inc).
Target sequence in this assay (Q92731 263-530): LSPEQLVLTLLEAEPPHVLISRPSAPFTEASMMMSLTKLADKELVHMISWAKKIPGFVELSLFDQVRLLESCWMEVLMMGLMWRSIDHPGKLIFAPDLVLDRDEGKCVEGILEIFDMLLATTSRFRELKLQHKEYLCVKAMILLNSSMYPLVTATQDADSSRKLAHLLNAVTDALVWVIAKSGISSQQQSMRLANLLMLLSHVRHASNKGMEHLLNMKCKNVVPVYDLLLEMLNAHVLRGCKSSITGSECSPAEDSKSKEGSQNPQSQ

ERβ(W335A) [3] = target: T2, ERβ(W335A) (Homo sapiens, UniProt Q92731, W335A); assay: Competitive binding assay for ERβ(W335A); set-up: made in house; host or cells: Escherichia coli BL21α (described for the wild-type LBD); settings: for shape of competitive binding curve, ERβ(W335A): Fig. 4B
Procedure: as §2
Target sequence in this assay (Q92731 263-530 W335A): as the sequence (Q92731 263-530) above, with W73A counted along it

ERβ [4] = target: T1, ERβ; assay: Radioligand competitive binding assay with [3H]E2 for ERβ (GST-ERβ-LBD); set-up: made in house; host or cells: Escherichia coli BL21α
Procedure: Human ERβ cDNA was obtained from OriGene Technologies. The cDNA of ERβ-LBD was amplified using PCR and subcloned into a pGEX-6p-1 expression vector. The expression of GST-fused ERβ-LBD was induced by 1 mM IPTG in Escherichia coli BL21α at 16 °C for overnight. The resulting crude protein was affinity-purified using Glutathione-Sepharose 4B (Cytiva), followed by gel filtration using a Sephadex G-10 column (Cytiva).
Target sequence in this assay (Q92731 263-530): as the sequence (Q92731 263-530) above

ERβ [5] = target: T1, ERβ; assay: Luciferase reporter gene assay in HeLa cells, antagonistic activity against 10 nM E2; assay type: cell-based; set-up: expressed in transfected cells; host or cells: HeLa; settings: for ERβ antagonist activity (in words): against 10 nM E2-induced ERβ activation, 100 nM, 1 μM, 10 μM
Procedure: as §1
Target sequence in this assay (Q92731 whole entry): as the sequence (Q92731 whole entry) above

ERβ(W335A) [6] = target: T2, ERβ(W335A); assay: Luciferase reporter gene assay in HeLa cells, ERβ(W335A); assay type: cell-based; set-up: expressed in transfected cells; host or cells: HeLa
Procedure: HeLa cells were maintained in Eagle's minimum essential medium (Nissui Pharmaceutical Co, Ltd) supplemented with DCC-treated fetal bovine serum (10%, v/v) at 37 °C under 5% CO2. […] After incubation for 24 h, cells were harvested and seeded onto 96-well plates at 5 × 10^4 cells/well, and then treated with a series of the test compounds (10^−12 M to 10^−5 M, final concentration) diluted with 1% bovine serum albumin/PBS (v/v). After a 24-h incubation, luciferase activity was measured using the ONE-Glo Luciferase Assay System (Promega Co) on an EnSpire multimode plate reader (PerkinElmer, Inc).
Target sequence in this assay (Q92731 whole entry W335A, the tested form may be a part): as the sequence (Q92731 whole entry) above, with W335A counted along it

[7] = target: T3, GST-fused ligand-binding domain of human estrogen receptor β (amino acids 263–530) (human, UniProt Q92731 263-530); assay: SPR; Biacore T100; GST-ERβ-LBD incubated with 10 μM BPC for 1 h, captured on anti-GST antibody on a CM5 chip at 25 °C; SRC1 peptide injected with BPC; HBS-EP+ buffer; settings: both partners purified
T3 construct: cDNA from OriGene Technologies; Subcloned into pGEX-6p-1; Captured on the chip through an anti-GST antibody; Incubated beforehand with 10 μM E2 or 10 μM BPC (small molecules) in two of the three SPR conditions; also called GST-ERβ-LBD; ERβ-LBD; source: E. coli BL21α, purified (Glutathione-Sepharose 4B, gel filtration on Sephadex G-10)
T3 sequence (Q92731 263-530): as the sequence (Q92731 263-530) above

[8] = target: T3, GST-fused ligand-binding domain of …; assay: SPR; Biacore T100; GST-ERβ-LBD incubated with 10 μM E2 for 1 h, captured on anti-GST antibody on a CM5 chip at 25 °C; SRC1 peptide injected with E2; HBS-EP+ buffer (0.01 M Hepes pH 7.4, 0.15 M NaCl, 3 mM EDTA, 0.05% Surfactant P20); settings: both partners purified
[9] = target: T3, GST-fused ligand-binding domain of …; assay: SPR; Biacore T100; GST-ERβ-LBD without E2, captured on anti-GST antibody on a CM5 chip; SRC1 peptide injected; HBS-EP+ buffer; settings: both partners purified

Molecule: Oc1ccc(C(=C(Cl)Cl)c2ccc(O)cc2)cc1 [Compound 1, 4,4'-(2,2-dichloroethene-1,1-diyl)diphenol]
- maximum fold induction (agonistic activity on ERβ) (ERβ [1]; ERE luciferase reporter, tested up to 10 µM): 2.39
- ERβ agonist activity (in words) (ERβ [1]): weak transcriptional activity
- IC50 (ERα): 2.81 ± 0.61 nM
- IC50 (ERβ [2]): 18.1 nM
- shape of competitive binding curve, WT ERβ (ERβ [2]; [3H]4OHT radioligand): biphasic dose–response curve
- IC50 (ERβ [2]; read-out: IC50, biphasic curve, low-affinity site, [3H]4OHT radioligand, WT ERβ): 2280 nM
- IC50 (ERβ(W335A) [3]): 691 ± 29 nM
- shape of competitive binding curve, ERβ(W335A) (ERβ(W335A) [3]): biphasic binding of BPC and BPAF was lost
- IC50 (ERβ [4]): 2.99 ± 1 nM
- transcriptional activity (%) at most effective inhibitory concentration, ratio to that of 10 nM E2 (ERβ [5]; HeLa cells, in the presence of 10 nM E2, 0.1, 1, 10 µM tested): 6.0%
- ERβ antagonist activity (in words) (ERβ [5]): strongest antagonistic activity

Molecule: CC(C)(c1ccc(O)cc1)c1ccc(O)cc1 [Compound 19, 4,4'-(propane-2,2-diyl)diphenol]
- ERβ agonist activity (in words) (ERβ [1]; listed as BPA): full agonist activity; also recorded: strongest ERβ agonistic activity; also recorded: strong transcriptional activity
- shape of competitive binding curve, WT ERβ (ERβ [2]; [3H]4OHT radioligand): sigmoidal curve
- transcriptional activity on ERβ(W335A) (in words) (ERβ(W335A) [6]): lost
- shape of competitive binding curve, ERβ(W335A) (ERβ(W335A) [3]): typical sigmoidal competitive dose–response curve
- affinity for ERβ, times weaker than that of E2 (ERβ [4]; relative to E2): 400 times
- ERβ antagonist activity (in words) (ERβ [5]): did not elicit antagonistic activity

B1: SRC1 peptide (amino acids 685–697) derived from human nuclear receptor coactivator 1 (peptide)
peptide: ERHKILHRLLQEG
notes: source: synthetic peptide (ABI 433A, solid phase, Fmoc chemistry)
- Kd [7]: 16400 nM
- Kd [8]: 3300 nM
- Kd [9]: 9100 nM
